Values joined by “and” are separate entries in the source; they are usually repeats but may differ in a detail not shown here. Identical values can stand only once.
Experiment: Analysis of 1/T1 ^1H NMRD profiles
Assay type: physicochemical
Method: The relaxometric characterization of the Gd complexes was carried out by recording their ^1H nuclear magnetic relaxation dispersion (NMRD) profiles at 283, 298, and 310 K in the proton Larmor frequency range 0.01–120 MHz, corresponding to magnetic field strengths varying between 2.34 × 10^–4 and 3 T (Figure 2). The shape of the NMRD profiles and their temperature dependence (r1 decreases with increasing temperature) reflect the general behavior of small Gd^III complexes, characterized by a constant r1 value at low fields, a dispersion around 4–6 MHz, and another region at high fields (>20 MHz) where r1 slightly decreases. […] A least-squares fit of the profiles was carried out in terms of the established theory of paramagnetic relaxation expressed by the Solomon–Bloembergen–Morgan[30],[31] and Freed’s[32] equations for the innersphere (IS) and outersphere (OS) proton relaxation mechanisms, respectively (Table 3). Because of the large number of parameters involved in the fitting procedure, some of them were fixed to known or reasonable values: The hydration number q was fixed to 1, and the distance between Gd^III and the protons of the bound water molecule, r, was fixed to 3.0 Å; the distance of closest approach, a, of the outersphere water molecules to Gd^III was set to 4.0 Å, and for the relative diffusion coefficient D, standard values of 1.7, 2.24, and 3.1 × 10^–5 cm^2 s^–1 (283, 298, and 310 K) were used. […] The difference in relaxivity between GdL1 and GdL2 cannot account for the difference in τR since their molecular weight is very similar; therefore, we considered that the pendant propionate moiety of GdL2 allows for the presence of second sphere (SS) water molecules in H-bonding interaction with the carboxylate group at a distance from Gd^III sufficiently short (<4 Å) and with a residence time sufficiently long to be affected by the rotation. […] Therefore, we analyzed the NMRD profiles for GdL2 also considering the SS contribution, expressed in terms of two additional parameters: the number qSS of second sphere water molecules and their rotational correlation time, τR(SS). The average distance from the paramagnetic center was arbitrarily fixed at 3.5 Å, an intermediate value between those of water molecules in the inner (3.0 Å) and outer (4.0 Å) solvation shell.[33] In addition, since GdL1 and GdL2 are structurally related to the recently reported GdHPADO3A-like complexes having a carbonyl group in place of the methyl group present in GdHPDO3A, τM was fixed to that reported for GdHPADO3A at pH 7 (20 ns).[7] The electronic and reorientation parameters reported in Table 3 for GdL1 and GdL2 are in good agreement with those of other GdHPDO3A-like complexes. Finally, considering the contribution of two second sphere water molecules characterized by a rotational correlation time τR(SS) of 30 ps, the contribution of the SS molecules to the relaxivity of GdL2 is about 0.3 mM^–1 s^–1 at 20 MHz and 298 K almost equal to the Δr1 between GdL1 and GdL2.
Proton relaxation measurements (1/T1) and the resulting 1/T1 NMRD profiles were measured on a fast-field cycling (FFC) Stelar SmarTracer relaxometer over a continuum of magnetic field strengths from 0.000 24 to 0.25 T (corresponding to 0.01–10 MHz proton Larmor frequencies). The relaxometer operates under computer control with an absolute uncertainty in 1/T1 of ±1%. […] Furthermore, the real temperature inside the probe head was additionally monitored by a Fluke 52 k/j digital thermometer (Fluke, Zürich, Switzerland). The gadolinium concentration was determined by measuring the bulk magnetic susceptibility shifts of the t-BuOH ^1H NMR signal. Additional data in the 20–120 MHz frequency range were obtained with a high field relaxometer (Stelar) equipped with the HTS-110 3T metrology cryogen-free superconducting magnet. […] The pH-dependent relaxivity measurements of GdL1 and GdL2 complexes were carried out by direct titration of the samples (GdL2, 3.0 < pH < 12.5; GdL1, 4 < pH < 10). […]

Δ^2 (NMRD fit): 8.5 ± 0.2 10^19 s^–2
τv (NMRD fit): 13.7 ± 0.5 ps
τR (NMRD fit, q = 1): 68 ± 2 ps
τR(SS) (determined for qSS = 2 and rSF = 3.5 Å): 30 ps and 30 ± 2 ps
Structure (SMILES): O=C([O-])CN1CCN(CC(=O)[O-])CCN(CC(O)C(=O)O)CCN(CC(=O)[O-])CC1.[Gd+3] (stereo not shown) [GdL2]
contribution of the second sphere (SS) water molecules to the relaxivity (20 MHz, 298 K, qSS = 2, τR(SS) 30 ps): about 0.3 mM^–1 s^–1
^298r1-60-MHz (298 K, 60 MHz, pH 7.4): 4.6 ± 0.1 mM^–1 s^–1
^310r1-60-MHz (310 K, 60 MHz, pH 7.4): 3.6 ± 0.1 mM^–1 s^–1

Source: article PMC8769378, “Underlining the Importance of Peripheral Protic Functional Groups to Enhance the Proton Exchange of Gd-Based MRI Contrast Agents” (Inorganic Chemistry, 2021)
